Numbering of substitutions follows the chain as printed. pEC50: −log10 of the molar value.
Experiments:
[1] = biological target: T1, O^6-alkylguanine-DNA alkyltransferase (AGT) (Homo sapiens, UniProt P16455); test: AGT inactivation in intact HT29 cells; details: for ratio of ED50 values in cell-free extracts/intact cells: HT29
T1 sequence (P16455 1-207): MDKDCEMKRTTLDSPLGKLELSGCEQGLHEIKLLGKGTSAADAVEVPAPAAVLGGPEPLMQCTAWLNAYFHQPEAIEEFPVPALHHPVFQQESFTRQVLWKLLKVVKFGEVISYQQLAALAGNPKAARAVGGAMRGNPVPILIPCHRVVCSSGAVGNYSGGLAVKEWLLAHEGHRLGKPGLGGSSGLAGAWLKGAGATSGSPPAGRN
Protocol: (§1) The data represent the dose of compound required to produce 50% inactivation in cell-free extracts upon incubation for 30 min or in cells upon incubation for 4 hr.

[2] = biological target: T1, O^6-alkylguanine-DNA alkyltransferase (AGT); test: AGT inactivation in HT29 cell-free extract
Protocol: as §1

[3] = tested on: DU-145 prostate cancer cells; test: Killing of DU-145 prostate cancer cells by BCNU combined with AGT inactivators (colony formation)
Protocol: (§2) Cells were treated for 2 h with AGT inactivator prior to exposure to BCNU.

HT-29 colon cancer cells = test: Killing of HT-29 colon cancer cells by BCNU combined with AGT inactivators (colony formation); details: for enhancement of BCNU cytotoxicity, in words: statement covers HT29, DU-145 and MCF-71 cells (Tables 3-5); for Colony Formation per 1000 cells: HT-29
Protocol: as §2

[4] = tested on: MCF-71 breast cancer cells; test: Killing of MCF-71 breast cancer cells by BCNU combined with AGT inactivators (colony formation)
Protocol: as §2

mutant alkyltransferase = test: Inactivation of mutant (resistant) alkyltransferase, overall statements; format: biochemical, human; details: intracellular concentration, extrapolated from Table 6
alkyltransferase G156A = biological target: T2, alkyltransferase G156A (Homo sapiens, UniProt P16455, G156A); test: Inhibition of mutant alkyltransferase proteins, G156A; format: biochemical
T2 construct: made in house
T2 sequence (P16455 1-207 G156A): T1 sequence (P16455 1-207) with G156A

[5] = biological target: T3, alkyltransferase P138A/P140A (Homo sapiens, UniProt P16455, P138A/P140A); test: Inhibition of mutant alkyltransferase proteins, P138A/P140A; format: biochemical
T3 construct: made in house
T3 sequence (P16455 1-207 P138A/P140A): T1 sequence (P16455 1-207) with P138A, P140A

Control alkyltransferase = biological target: T4, Control alkyltransferase (Homo sapiens, UniProt P16455); test: Inhibition of alkyltransferase proteins, control protein; format: biochemical; details: concentration to inactivate 50% of the activity in 30 minutes, read-out: ED50 value
T4 sequence (P16455 1-207): T1 sequence (P16455 1-207)

alkyltransferase P140A = biological target: T5, alkyltransferase P140A (Homo sapiens, UniProt P16455, P140A); test: Inhibition of mutant alkyltransferase proteins, P140A; format: biochemical
T5 construct: made in house
T5 sequence (P16455 1-207 P140A): T1 sequence (P16455 1-207) with P140A

[6] = Behaviour in solution at pH 13 (noted with UV spectra); format: physicochemical
purified human AGT = biological target: T6, purified human AGT (Homo sapiens, UniProt P16455); test: Inactivation of purified human AGT; format: biochemical; details: Table 2 footnotes; read-out: ED50 with purified human AGT
T6 sequence (P16455 1-207): T1 sequence (P16455 1-207)

[7] = biological target: T1, O^6-alkylguanine-DNA alkyltransferase (AGT); parameters: endogenous in cells; host or cells: HT29 human colon tumor cells; details: text b35, comparison value of Table 1; cited from earlier work

Nc1nc(OCc2ccccc2)c2nc(C(F)(F)F)[nH]c2n1 [Compound 1e, O^6-Benzyl-8-trifluoromethylguanine]
pEC50 [1]: 6.60
ratio of ED50 values in cell-free extracts/intact cells [1]: 1.6
pEC50 [2]: 6.40
melting point: 214 to 216 °C (dec.)

Nc1nc(N)c(N)c(OCc2ccccc2)n1 [Compound 3c, 2,4,5-triamino-6-benzyloxypyrimidine]
pEC50 [1]: 6.52
pEC50 [2]: 6.40
Colony Formation per 1000 cells ([3]; inactivator 1 μM, BCNU 40 μM): 378 ± 60 per 1000 cells
Colony Formation per 1000 cells ([3]; inactivator 10 μM, BCNU 40 μM): 57 ± 7 per 1000 cells
Colony Formation per 1000 cells ([3]; inactivator 10 μM, BCNU none): 429 ± 101 per 1000 cells
enhancement of BCNU cytotoxicity, in words (HT-29 colon cancer cells; BCNU 40 μM): as effective as the 8-substituted O^6-bezylguanine derivatives and O^6-benzylguanine itself
Colony Formation per 1000 cells (HT-29 colon cancer cells; inactivator 1 μM, BCNU 40 μM): 487 ± 32 per 1000 cells
Colony Formation per 1000 cells (HT-29 colon cancer cells; inactivator 10 μM, BCNU 40 μM): 3 ± 1 per 1000 cells
Colony Formation per 1000 cells (HT-29 colon cancer cells; inactivator 10 μM, BCNU none): 453 ± 59 per 1000 cells
Colony Formation per 1000 cells ([4]; inactivator 10 μM, BCNU 40 μM): 12 ± 4 per 1000 cells
Colony Formation per 1000 cells ([4]; inactivator 10 μM, BCNU none): 448 ± 55 per 1000 cells

Nc1nc(N)c(N=O)c(OCc2ccccc2)n1 [Compound 3d, 2,4-diamino-6-benzyloxy-5-nitrosopyrimidine]
pEC50 [1]: 7.70
concentration needed to be effective at inactivating resistant alkyltransferase (mutant alkyltransferase): greater than 5 μM
pEC50 [2]: 7.22
AGT inactivating activity in HT29 cell-free extracts, in words ([2]; comparison): the most active AGT inactivators tested to date
pEC50 (alkyltransferase G156A; G156A, concentration to inactivate 50% of the activity in 30 minutes, read-out: ED50 value): 6.00
Colony Formation per 1000 cells ([3]; inactivator 1 μM, BCNU 40 μM): 25 ± 4 per 1000 cells
pEC50 ([5]; P138A/P140A, concentration to inactivate 50% of the activity in 30 minutes, read-out: ED50 value): 6.52
pEC50 (Control alkyltransferase): 7.30
pEC50 (alkyltransferase P140A; P140A, concentration to inactivate 50% of the activity in 30 minutes, read-out: ED50 value): 7.00
enhancement of BCNU cytotoxicity, in words (HT-29 colon cancer cells; BCNU 40 μM): similarly effective at a 4-fold lower dose
Colony Formation per 1000 cells (HT-29 colon cancer cells; inactivator 1 μM, BCNU 40 μM): 19 ± 4 per 1000 cells
Colony Formation per 1000 cells (HT-29 colon cancer cells; inactivator […], BCNU 40 μM): <1 per 1000 cells
Colony Formation per 1000 cells ([4]; inactivator […], BCNU 40 μM): 2 ± 1 per 1000 cells

Cn1c(C(F)(F)F)nc2c(OCc3ccccc3)nc(N)nc21 [Compound 7, O^6-Benzyl-8-trifluoromethyl-9-methylguanine]
pEC50 [1]: 6.40
ratio of ED50 values in cell-free extracts/intact cells [1]: 6.3
AGT inactivating activity in intact HT29 cells, in words ([1]; comparison): significantly higher than their activity in cell-free extracts
pEC50 [2]: 5.60
melting point: 86 to 89 °C

CC(C)(C)C(=O)OCn1nnc2c(OCc3ccccc3)nc(N)nc21 [Compound 8b, 8-Aza-O^6-benzyl-9-(pivaloyloxymethyl)guanine]
pEC50 [1]: 6.64
pEC50 [2]: 6.55
melting point: 119 to 120 °C
stability at pH 13 [6]: decomposes to 8-aza-O^6-benzylguanine
pEC50 (purified human AGT): 5.40

CC(C)(C)C(=O)OCn1nnc2nc(N)nc(OCc3ccccc3)c21 [Compound 9, 8-Aza-O^6-benzyl-7-(pivaloyloxymethyl)guanine]
pEC50 [1]: 6.80
pEC50 [2]: 6.96
melting point: 153 to 154 °C
stability at pH 13 [6]: decomposes to 8-aza-O^6-benzylguanine
pEC50 (purified human AGT): 5.70

CC(C)(C)C(=O)OCn1c(Br)nc2c(OCc3ccccc3)nc(N)nc21 [Compound 10b, O^6-Benzyl-8-bromo-9-(pivaloyloxymethyl)guanine]
pEC50 [1]: 7.30
pEC50 [2]: 7.10
melting point: 217 to 218 °C
stability at pH 13 [6]: decomposes to O^6-benzyl-8-bromoguanine
pEC50 (purified human AGT): < 4.00

CC(C)(C)C(=O)OCn1cnc2nc(N)nc(OCc3ccccc3)c21 [Compound 12, O^6-benzyl-7-(pivaloyloxymethyl)guanine]
pEC50 [1]: 6.52
pEC50 [2]: 5.05
stability at pH 13 [6]: decomposes to O^6-benzylguanine
pEC50 (purified human AGT): < 4.00

Nc1nc(OCc2ccccc2)c2nc[nH]c2n1 [O^6-benzylguanine, reference compound]
concentration needed to be effective at inactivating resistant alkyltransferase (mutant alkyltransferase): greater than 200 μM
increase in resistance to inactivation (alkyltransferase G156A; G156A versus control protein): 240 fold
Colony Formation per 1000 cells ([3]; inactivator 1 μM, BCNU 40 μM): 299 ± 18 per 1000 cells
Colony Formation per 1000 cells ([3]; inactivator 10 μM, BCNU 40 μM): 28 ± 5 per 1000 cells
Colony Formation per 1000 cells ([3]; inactivator 10 μM, BCNU none): 462 ± 68 per 1000 cells
increase in resistance to inactivation ([5]; P138A/P140A versus control protein): 88 fold
increase in resistance to inactivation (alkyltransferase P140A; P140A versus control protein): 20 fold
Colony Formation per 1000 cells (HT-29 colon cancer cells; inactivator 1 μM, BCNU 40 μM): 277 ± 25 per 1000 cells
Colony Formation per 1000 cells (HT-29 colon cancer cells; inactivator 10 μM, BCNU 40 μM): 13 ± 6 per 1000 cells
Colony Formation per 1000 cells (HT-29 colon cancer cells; inactivator 10 μM, BCNU none): 431 ± 33 per 1000 cells
Colony Formation per 1000 cells (HT-29 colon cancer cells; inactivator […], BCNU 40 μM): 38 ± 15 per 1000 cells
ED50 value for inactivation of AGT in HT29 cell extracts [7]: 200 µM
Colony Formation per 1000 cells ([4]; inactivator 10 μM, BCNU 40 μM): 4 ± 2 per 1000 cells
Colony Formation per 1000 cells ([4]; inactivator 10 μM, BCNU none): 455 ± 63 per 1000 cells
Colony Formation per 1000 cells ([4]; inactivator […], BCNU 40 μM): 12 ± 6 per 1000 cells

— patent US6436945B2, “Substituted O6-benzyl-8-aza-guanines” (The United States of America as represented by the of …, priority 1994, dated 2002)
